Assay [1] concerns the target Neuraminidase (Influenza A virus (A/Puerto Rico/8/1934(H1N1)), UniProt P03468). The experiment in a line: Inhibition of neuraminidase of influenza A/PR/8/34(H1N1).
Assay [2] concerns unidentified influenza virus. Nature of the assay: Concentration required for 50% inhibition of influenza A/WS/33 by plaque reduction assay. Type of assay: functional, organism-based.

Neuraminidase (Influenza A virus (A/Puerto Rico/8/1934(H1N1)), UniProt P03468), sequence (P03468 whole entry): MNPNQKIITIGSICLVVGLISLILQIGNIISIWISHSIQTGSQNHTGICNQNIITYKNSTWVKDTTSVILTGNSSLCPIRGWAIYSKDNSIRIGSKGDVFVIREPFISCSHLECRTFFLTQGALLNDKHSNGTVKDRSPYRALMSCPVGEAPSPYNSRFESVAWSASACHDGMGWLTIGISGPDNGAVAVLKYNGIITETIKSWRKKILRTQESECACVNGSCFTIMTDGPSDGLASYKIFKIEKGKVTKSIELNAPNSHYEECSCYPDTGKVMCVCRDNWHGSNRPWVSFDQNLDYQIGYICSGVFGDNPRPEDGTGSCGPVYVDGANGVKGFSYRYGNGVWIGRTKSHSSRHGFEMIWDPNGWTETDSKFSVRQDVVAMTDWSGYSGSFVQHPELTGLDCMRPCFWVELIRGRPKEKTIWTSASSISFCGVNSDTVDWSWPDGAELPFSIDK

As usually defined, the IC50 is the concentration that inhibits the measured activity by half. On to `CC(=O)N[C@@H]1[C@@H](N)CC(C(=O)O)=C[C@H]1Oc1ccccc1`, for which, in assay [1], the IC50 was 530 nM.
Consider `CCCO[C@@H]1C=C(C(=O)O)C[C@H](N=C(N)NC)[C@H]1NC(C)=O`, for which the IC50 in assay [2] was determined as 1.6 nM; in assay [1] it was 4.6 nM.
`CC(=O)N[C@@H]1[C@@H](N)CC(C(=O)O)=C[C@H]1OC1CCCCC1`: half-maximal inhibition in assay [1] (IC50) was put at 60 nM.
For the compound `CCCO[C@@H]1C=C(C(=O)O)C[C@H](N)[C@H]1NC(=O)C(F)(F)F`, the IC50 amounted to 22000 nM in assay [2] and 1400 nM in assay [1].
For `CCCO[C@@H]1C=C(C(=O)O)C[C@H](N)[C@H]1NS(C)(=O)=O`, the IC50 in assay [1] turned out to be 25000 nM.
As to `CC(=O)N[C@@H]1[C@@H](N)CC(C(=O)O)=C[C@H]1OCCC(F)(F)F`, the IC50 in assay [1] amounted to 225 nM.
The same measure, in the same setting: with `C=CCO[C@@H]1C=C(C(=O)O)C[C@H](N)[C@H]1NC(C)=O` the figure was 2200 nM; with `CCCO[C@@H]1C=C(C(=O)O)C[C@H](NC=N)[C@H]1NC(C)=O`, 140 nM.
Still for that read-out and setting: for `CCCO[C@@H]1C=C(C(=O)O)C[C@H](N)[C@H]1NC(=O)CC` the value was 1500 nM; for `CC(=O)N[C@@H]1[C@@H](N)CC(C(=O)O)=C[C@H]1OC1CCCC1`, 22 nM.
Consider `CCCO[C@@H]1C=C(C(=O)O)C[C@H](N)[C@H]1NC(C)=O`, for which the figures for the IC50 in assay [2] and in assay [1] were 44000 nM and 130 nM, respectively.
Compound `COCO[C@@H]1C=C(C(=O)O)C[C@H](N)[C@H]1NC(C)=O` returned an IC50 in assay [1] of 2000 nM.
Consider `CCCO[C@@H]1C=C(C(=O)O)C[C@H](N=C(N)N)[C@H]1NC(C)=O`, for which the results for the IC50 in assay [2] and in assay [1] were 44 nM and 1.8 nM, respectively.
